Laboratory results published in US20200214330A1, “RICE PROTEIN HYDROLYSATES WITH ANTI-INFLAMMATORY PROPERTIES” (ABBOTT LABORATORIES, priority 2017, published 2020).

Assays:
Format in all cases: cell-based, murine
[1] = system: 4-1BBL expression in RAW 264.7 cells; test: LPS-induced 4-1BBL expression in RAW 264.7 macrophage cells; details: 1 hour pretreatment at 0.5 μg/mL, FIG. 12
Description: FIG. 5 illustrates in vitro early (6 hours after LPS stimulation) and late phase (24 hours after LPS stimulation) inhibition of 4-1BBL expression in macrophage cells (RAW264.7) pre-incubated for 1 hour with RPH-land then treated with LPS; […] FIG. 12 illustrates in vitro early (6 hours after LPS stimulation) and late (24 hours after LPS stimulation) phase inhibition of 4-1BBL expression in macrophage cells (RAW264.7) pre-incubated for 1 hour with different levels of curcumin and then treated with LPS; Specific studies have determined effects of the hydrolysates on TNFα secretion, 4-1BBL expression, and NF-κB Expression in murine macrophages (RAW 264.7 cells) treated with LPS (see FIGS. 1-13). RPH-1 inhibits early and late phase TNFα secretion from cells in culture.

[2] = system: NF-κB activation in RAW 264.7 cells; test: LPS-induced NF-κB activation in RAW 264.7 macrophage cells; details: 2.5 μg/mL pretreatment for 2 hours; 30 min after LPS stimulation; FIG. 13
Description: FIG. 6 illustrates in vitro NF-κB activation (30 min after LPS stimulation) in macrophage cells (RAW264.7) preincubated for 2 hours with RPH-1 and then treated with LPS; FIG. 13 illustrates in vitro inhibition of nuclear factor kappa-light-chain-enhancer of activated B cells (NF-κB) activation in macrophage cells (RAW264.7) pre-incubated with curcumin for 2 hours and treated with LPS for 30 minutes; Specific studies have determined effects of the hydrolysates on TNFα secretion, 4-1BBL expression, and NF-κB Expression in murine macrophages (RAW 264.7 cells) treated with LPS (see FIGS. 1-13). Pretreatment with curcumin at 0.5 μg/mL and […] for 1 hour led to an inhibition of TNFα secretion (FIG. 11) and 4-IBBL expression (FIG. 12) at 6 hours and 24 hours following LPS treatment.

[3] = system: TNFα secretion from RAW 264.7 cells; test: LPS-induced TNFα secretion from RAW 264.7 macrophage cells; details: 1 hour pretreatment at 0.5 μg/mL, FIG. 11
Description: FIG. 11 illustrates in vitro early (6 hours after LPS stimulation) and late (24 hours after LPS stimulation) phase inhibition of TNFα secretion from macrophage cells (RAW264.7) pre-incubated with different levels of curcumin for 1 hour and then treated with LPS; Specific studies have determined effects of the hydrolysates on TNFα secretion, 4-1BBL expression, and NF-κB Expression in murine macrophages (RAW 264.7 cells) treated with LPS (see FIGS. 1-13). RPH-1 inhibits early and late phase TNFα secretion from cells in culture.

## COc1cc(C=CC(=O)CC(=O)C=Cc2ccc(O)c(OC)c2)ccc1O [curcumin, 1,7-Bis-(4-hydroxy-3-methoxyphenyl)-hepta-1,6-diene-3,5-dione]
[1]; 6 hours after LPS
  4-1BBL expression, early phase: inhibition
[1]; 24 hours after LPS
  4-1BBL expression, late phase: inhibition
[2]
  LPS-induced NF-κB expression: decreased
[3]; 6 hours after LPS
  TNFα secretion, early phase: inhibition
[3]; 24 hours after LPS
  TNFα secretion, late phase: inhibition
